The subject of this assay is susceptible H37Rv MTB strain. As to the kind of experiment: Resazurin Microplate Assay (REMA), anti-tubercular activity, H37Rv. As to conditions: Mycobacterium tuberculosis, 192 h, read-out: MIC (μg/mL) H37Rv. The class given is cell-based. In general terms: Resazurin is reduced to fluorescent resorufin, in cell work by metabolically active cells.
[1] abbreviates: in vitro, REMA, susceptible H37Rv MTB strain, 8 days incubation.

This passage reports MIC results from patent US11530217B1, “Antitubercular compounds” (priority 2022, dated 2022).

≈ marks a conversion by molar mass, not a printed value. Read-outs that look alike come from different tables or passages of the source.

Turning to `COC(=O)c1c(C(=O)OC)c2c(C)cc(C)cn2c1C(=O)c1ccc(OC)cc1` [Compound 5b, Dimethyl 3-(4-methoxybenzoyl)-6,8-dimethylindolizine-1,2-dicarboxylate], the MIC (H37RV) was determined as 4 µg/mL (≈ 10.1 µM). Regarding `CCOC(=O)c1cc(C(=O)c2ccc(Cl)cc2)n2cc(C)cc(C)c12` [Compound 5c, Ethyl 3-(4-chlorobenzoyl)-6,8-dimethylindolizine-1-carboxylate], the MIC under setting [1] amounted to 0.5 µg/mL (≈ 1.41 µM). `COC(=O)c1c(C(=O)OC)c2c(C)cc(C)cn2c1C(=O)c1ccc(Cl)cc1` [Compound 5d, Dimethyl 3-(4-chlorobenzoyl)-6,8-dimethylindolizine-1,2-dicarboxylate]: the MIC under setting [1] came out at 8 µg/mL (≈ 20 µM). `CCOC(=O)c1cc(C(=O)c2ccc(F)cc2)n2cc(C)cc(C)c12` [Compound 5g, Ethyl 3-(4-fluorobenzoyl)-6,8-dimethylindolizine-1-carboxylate]: the MIC (H37RV) amounted to 4 µg/mL (≈ 11.8 µM).

In the case of `CCOC(=O)c1cc(C(=O)c2ccccc2[N+](=O)[O-])n2cc(C)cc(C)c12` [Compound 5h, Ethyl 6,8-dimethyl-3-(2-nitrobenzoyl)indolizine-1-carboxylate], the MIC (H37RV) is 4 µg/mL (≈ 10.9 µM). Take `CCOC(=O)c1cc(C(=O)c2cc(C(F)(F)F)cc(C(F)(F)F)c2)n2cc(C)cc(C)c12` [Compound 5i, Ethyl 3-(3,5-bis(trifluoromethyl)benzoyl)-6,8-dimethylindolizine-1-carboxylate]: the MIC (H37RV) came out at 4 µg/mL (≈ 8.75 µM). Still for that read-out and setting: as for `CCOC(=O)c1cc(C(=O)c2ccc(C#N)cc2)n2cc(C)cc(C)c12` [Compound 5j, Ethyl 3-(4-cyanobenzoyl)-6,8-dimethylindolizine-1-carboxylate], the figure is 0.5 µg/mL (≈ 1.44 µM). Same read-out and setting: as for `CCOC(=O)c1cc(C(=O)c2ccc(C)cc2)n2cc(C)cc(C)c12` [Compound 5k, Ethyl 6,8-dimethyl-3-(4-methylbenzoyl)indolizine-1-carboxylate], the figure is 0.5 µg/mL (≈ 1.49 µM).

Turning to `COC(=O)c1c(C(=O)OC)c2c(C)cc(C)cn2c1C(=O)c1ccc(C#N)cc1` [Compound 5l, Dimethyl 3-(4-cyanobenzoyl)-6,8-dimethylindolizine-1,2-dicarboxylate], under setting [1], the MIC worked out at 4 µg/mL (≈ 10.2 µM). As for `COC(=O)c1c(C(=O)OC)c2c(C)cc(C)cn2c1C(=O)c1ccc(C)cc1` [Compound 5m, Dimethyl 6,8-dimethyl-3-(4-methylbenzoyl)indolizine-1,2-dicarboxylate], the MIC (H37RV) turned out to be 0.25 µg/mL (≈ 0.659 µM).
